# Results from ChEMBL document CHEMBL1122681, “(Acylaryloxy)acetic acid diuretics. 5. [(2-Alkyl- and 2,2-disubstituted-1,3-dioxo-5-indanyl)oxy]acetic acids” (J Med Chem, 1984).
# Tests used:
# [1] = volume of urine at 3 mg/kg; format: ADME, organism-based; parameters: dose 3 mg/kg; details: in vivo
# [2] = test system: Pan troglodytes; assay: Compound was evaluated for diuretic activity in chimpanzee measured as increase in the number of microequivalents of Na+ /min at 5 mg/kg; format: functional, Urine
# [3] = test system: Pan troglodytes; assay: Compound was evaluated for diuretic activity in chimpanzee measured as increase in the number of microequivalents of K+ /min at 1 mg/kg; format: functional, Urine
# [4] = test system: Rattus norvegicus; assay: Compound was evaluated for diuretic activity administered orally in female rats measured as milliequivalents of Cl-+x 100 / cage at 27 mg/kg; format: functional, Urine; details: route oral
# [5] = test system: Rattus norvegicus; assay: Compound was evaluated for diuretic activity administered orally in female rats measured as milliequivalents of K+x 100 / cage at 81 mg/kg; format: functional, Urine; details: route oral
# [6] = test system: Rattus norvegicus; assay: Compound was evaluated for diuretic activity administered orally in female rats measured as milliequivalents of Na+x 100 / cage at 9 mg/kg; format: functional, Urine; details: route oral
# [7] = test system: Canis familiaris; assay: Compound was evaluated for diuretic activity, in female mongrel dogs by measuring volume of urine, after iv administration of 5 mg/kg (control/compound treatment results) Control = 2; format: ADME, organism-based, Canis lupus familiaris; parameters: dose 5 mg/kg, route intravenous; details: dog, in vivo
# [8] = test system: Pan troglodytes; assay: Compound was evaluated for diuretic activity in chimpanzee measured as clearance of […] and urate after intravenous administration of 1 mg/kg; format: functional, Urine
# [9] = test system: Pan troglodytes; assay: Compound was evaluated for diuretic activity in chimpanzee measured as increase in the number of microequivalents of K+ /min at 5 mg/kg; format: functional, Urine
# [10] = volume of urine at 81 mg/kg; format: ADME, organism-based; parameters: dose 81 mg/kg; details: in vivo
# [11] = test system: Rattus norvegicus; assay: Compound was evaluated for diuretic activity administered orally in female rats measured as milliequivalents of Cl-x 100 / cage at 81 mg/kg; format: functional, Urine; details: route oral
# [12] = test system: Rattus norvegicus; assay: Compound was evaluated for diuretic activity administered orally in female rats measured as milliequivalents of K+x 100 / cage at 27 mg/kg; format: functional, Urine; details: route oral
# [13] = test system: Rattus norvegicus; assay: Compound was evaluated for diuretic activity administered orally in female rats measured as milliequivalents of Na+x 100 / cage at 3 mg/kg; format: functional, Urine; details: route oral
# [14] = test system: Canis familiaris; assay: Compound was evaluated for diuretic activity, in female mongrel dogs by measuring amount of Na+ in urine after iv administration of 5 mg/kg (control/compound treatment results) Control = 35; format: functional, Canis lupus familiaris
# [15] = test system: Canis familiaris; assay: Compound was evaluated for diuretic activity, in female mongrel dogs by measuring amount of Cl- in urine after iv administration of 5 mg/kg (control/compound treatment results) Control = 5; format: functional, Canis lupus familiaris
# [16] = volume of urine at 27 mg/kg; format: ADME, organism-based; parameters: dose 27 mg/kg; details: in vivo
# [17] = test system: Pan troglodytes; assay: Compound was evaluated for diuretic activity in chimpanzee measured as increase in the number of microequivalents of Cl- electrolyte/min at 5 mg/kg; format: functional, Urine
# [18] = volume of urine at 9 mg/kg; format: ADME, organism-based; parameters: dose 9 mg/kg; details: in vivo
# [19] = test system: Pan troglodytes; assay: Compound was evaluated for diuretic activity in chimpanzee measured as clearance of […] and urate after peroral administration of 5 mg/kg; format: functional, Urine; details: route oral
# [20] = test system: Pan troglodytes; assay: Compound was evaluated for diuretic activity in chimpanzee measured as increase in volume of urine at 1 mg/kg; format: functional
# [21] = test system: Rattus norvegicus; assay: Compound was evaluated for diuretic activity administered orally in female rats measured as milliequivalents of Cl-x 100 / cage at 9 mg/kg; format: functional, Urine; details: route oral
# [22] = test system: Rattus norvegicus; assay: Compound was evaluated for diuretic activity administered orally in female rats measured as milliequivalents of Na+x 100 / cage at 27 mg/kg; format: functional, Urine; details: route oral
# [23] = test system: Rattus norvegicus; assay: Compound was evaluated for diuretic activity administered orally in female rats measured as milliequivalents of K+x 100 / cage at 3 mg/kg; format: functional, Urine; details: route oral
# [24] = test system: Pan troglodytes; assay: (§1) Compound was evaluated for diuretic activity in chimpanzee measured as increase in the number of microequivalents of Na+ /min at 1 mg/kg; format: functional, Urine
# [25] = test system: Rattus norvegicus; assay: Compound was evaluated for diuretic activity administered orally in female rats measured as milliequivalents of K+x 100 / cage at 9 mg/kg; format: functional, Urine; details: route oral
# [26] = test system: Rattus norvegicus; assay: Compound was evaluated for diuretic activity administered orally in female rats measured as milliequivalents of Cl-x 100 / cage at 3 mg/kg; format: functional, Urine; details: route oral
# [27] = test system: Pan troglodytes; assay: Compound was evaluated for diuretic activity in chimpanzee measured as increase in volume of urine at 5 mg/kg; format: functional
# [28] = test system: Rattus norvegicus; assay: Compound was evaluated for diuretic activity administered orally in female rats measured as milliequivalents of Na+x 100 / cage at 81 mg/kg; format: functional, Urine; details: route oral
# [29] = test system: Canis familiaris; assay: Compound was evaluated for diuretic activity, in female mongrel dogs by measuring amount of K+ in urine after iv administration of 5 mg/kg (control/compound treatment results) Control = 10; format: functional, Canis lupus familiaris
# [30] = test system: Pan troglodytes; assay: Compound was evaluated for diuretic activity in chimpanzee measured as increase in the number of microequivalents of Cl- electrolyte/min at 1 mg/kg; format: functional, Urine
# [31] = test system: Canis familiaris; assay: Compound was evaluated for diuretic activity, administered orally in female mongrel dogs (5 mg/kg) measured as milliequivalents of Na; format: functional, Canis lupus familiaris, Urine
# [32] = test system: Canis familiaris; assay: Compound was evaluated for diuretic activity, in female mongrel dogs by measuring amount of Cl- in urine after iv administration of 5 mg/kg (control/compound treatment results) Control = 9; format: functional, Canis lupus familiaris
# [33] = test system: Canis familiaris; assay: Compound was evaluated for diuretic activity, in female mongrel dogs by measuring amount of Na+ in urine after iv administration of 5 mg/kg (control/compound treatment results) Control = 24; format: functional, Canis lupus familiaris
# [34] = Volume of urine at 9 mg/kg; format: ADME, organism-based; parameters: dose 9 mg/kg; details: in vivo
# [35] = Volume of urine at 81 mg/kg; format: ADME, organism-based; parameters: dose 81 mg/kg; details: in vivo
# [36] = Volume of urine at 27 mg/kg; format: ADME, organism-based; parameters: dose 27 mg/kg; details: in vivo
# [37] = test system: Canis familiaris; assay: Compound was evaluated for diuretic activity, administered orally in female mongrel dogs (5 mg/kg) measured as milliequivalents of Cl-; format: functional, Canis lupus familiaris, Urine
# [38] = test system: Canis familiaris; assay: Compound was evaluated for diuretic activity, in female mongrel dogs by measuring amount of K+ in urine after iv administration of 5 mg/kg (control/compound treatment results) Control = 5; format: functional, Canis lupus familiaris
# [39] = Volume of urine at 3 mg/kg; format: ADME, organism-based; parameters: dose 3 mg/kg; details: in vivo
# [40] = test system: Pan troglodytes; assay: Compound was evaluated for diuretic activity in chimpanzee measured as clearance of […] and urate after intra venous administration of 1 mg/kg; format: functional, Urine
# [41] = test system: Canis familiaris; assay: Compound was evaluated for diuretic activity, administered orally in female mongrel dogs (5 mg/kg) measured as milliequivalents of K; format: functional, Canis lupus familiaris, Urine
# [42] = organism: Canis familiaris; assay: (§2) Volume of urine in dog; format: ADME, organism-based, Canis lupus familiaris; details: in vivo
# [43] = test system: Pan troglodytes; assay: as §1; format: functional, Urine; remark: listed apart in the source
# [44] = test system: Pan troglodytes; assay: Compound was evaluated for diuretic activity in chimpanzee measured as increase in the number of microequivalents of Na+ /min at 1 0.5 mg/kg; format: functional, Urine
# [45] = test system: Pan troglodytes; assay: Compound was evaluated for diuretic activity in chimpanzee measured as increase in the number of microequivalents of Cl- electrolyte/min at 1.5 mg/kg; format: functional, Urine
# [46] = test system: Canis familiaris; assay: Compound was evaluated for diuretic activity, in female mongrel dogs by measuring amount of K+ in urine after iv administration of 5 mg/kg (control/compound treatment results) Control = 13; format: functional, Canis lupus familiaris
# [47] = test system: Pan troglodytes; assay: Compound was evaluated for diuretic activity in chimpanzee measured as increase in the number of microequivalents of K+ /min at 1.5 mg/kg; format: functional, Urine
# [48] = test system: Pan troglodytes; assay: Compound was evaluated for diuretic activity in chimpanzee measured as clearance of […] and urate after intra venous administration of.1 5 mg/kg.; format: functional, Urine
# [49] = test system: Canis familiaris; assay: Compound was evaluated for diuretic activity, in female mongrel dogs by measuring amount of Na+ in urine after iv administration of 5 mg/kg (control/compound treatment results) Control = 59; format: functional, Canis lupus familiaris
# [50] = organism: Canis familiaris; assay: as §2; format: functional, Canis lupus familiaris
Structure (SMILES),Urine volume [1],Increase [2],Activity [4],Activity [5],Activity [6],Urine volume [7],Increase [9],Activity [11],Activity [12],Activity [13],Increase [17],Delta C urate / delta C insulin [19],Increase in volume [20],Activity [21],Activity [22],Activity [23],Activity [25],Activity [26],Increase in volume [27],Activity [28],also measured
Cc1c(OCC(=O)O)cc2c(c1Cl)C(=O)C(C)(C1CCCC1)C2=O (stereo not drawn),24 mL,388,40,36,41,2 mL/min,54,86,22,19,527,0.149,0.6 mL/min,30,50,21,24,17,0 mL/min,76,Increase [3]: 51; Delta C urate / delta C insulin [8]: 0.204; Urine volume [10]: 25 mL; Activity [14]: 132 u equiv min-1; Activity [15]: 48 u equiv min-1; Urine volume [16]: 27 mL; Urine volume [18]: 27 mL; Increase [24]: 82; Activity [29]: 41 u equiv min-1; Increase [30]: 129
Cc1c(OCC(=O)O)cc2c(c1Cl)C(=O)C1(CCCC1)C2=O [(ACYLARYLOXY)ACETIC ACID],–,170,30,29,26,5 mL/min,39,61,32,14,211,0.053,1.1 mL/min,15,35,23,30,10,-0.5 mL/min,47,Activity [31]: 2; Increase [3]: 37; Activity [32]: 245 u equiv min-1; Activity [33]: 305 u equiv min-1; Urine volume [34]: 29 mL; Urine volume [35]: 29 mL; Urine volume [36]: 33 mL; Activity [37]: 3; Activity [38]: 23 u equiv min-1; Urine volume [39]: 29 mL; Delta C urate / delta C insulin [40]: 0.088; Activity [41]: 1; Urine volume [42]: 253 mL; Increase [30]: 117; Increase [43]: 59
NS(=O)(=O)c1cc2c(cc1Cl)NCNS2(=O)=O [HYDROCHLOROTHIAZIDE],37 mL,144,191,61,133,3 mL/min,93,163,61,127,198,-0.015,1.8 mL/min,143,168,50,33,146,1 mL/min,154,Increase [44]: 275; Activity [31]: 50; Increase [45]: 187; Activity [46]: 27 u equiv min-1; Urine volume [10]: 33 mL; Activity [15]: 11 u equiv min-1; Increase [47]: 25; Urine volume [16]: 32 mL; Urine volume [18]: 30 mL; Activity [37]: 7; Delta C urate / delta C insulin [48]: 0.01; Activity [41]: 18; Activity [49]: 193 u equiv min-1; Volume of urine [50]: 25
